Experimental data as given in patent US11780845B2 (Relay Therapeutics, Inc., priority 2019, dated 2023).

Legend:
SNU16 cells = experiment: SNU16 Cancer Cell Line Proliferation Assay; type: cell-based; settings: Homo sapiens; SNU-16 cells
Outline: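 SNU16 cells were seeded, held 24 h at 37 degrees, then dosed with an 11-point 3-fold dilution series prepared from a 10 mM DMSO stock. After 96 h incubation, viability was read by CellTiter Glo luminescence.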

FGFR2 = FGFR2 (Homo sapiens (Human), UniProt P21802); experiment: FGFR2 Biochemical Caliper Assay
Procedure: Compounds of the present invention were also tested in a FGFR2 Biochemical Caliper Assay. Compounds were prepared in 10 mM DMSO solution and serially diluted into 11 concentrations by 3-fold dilution. […] 5 uL of ATP solution (100 uM) was added to start the reaction and the plate was incubated for 90 minutes, then 70 uL of stopping buffer (0.5M EDTA) was added to terminate the reaction. Each well was analyzed using EZ reader.

Sequence of FGFR2 (P21802 22-821): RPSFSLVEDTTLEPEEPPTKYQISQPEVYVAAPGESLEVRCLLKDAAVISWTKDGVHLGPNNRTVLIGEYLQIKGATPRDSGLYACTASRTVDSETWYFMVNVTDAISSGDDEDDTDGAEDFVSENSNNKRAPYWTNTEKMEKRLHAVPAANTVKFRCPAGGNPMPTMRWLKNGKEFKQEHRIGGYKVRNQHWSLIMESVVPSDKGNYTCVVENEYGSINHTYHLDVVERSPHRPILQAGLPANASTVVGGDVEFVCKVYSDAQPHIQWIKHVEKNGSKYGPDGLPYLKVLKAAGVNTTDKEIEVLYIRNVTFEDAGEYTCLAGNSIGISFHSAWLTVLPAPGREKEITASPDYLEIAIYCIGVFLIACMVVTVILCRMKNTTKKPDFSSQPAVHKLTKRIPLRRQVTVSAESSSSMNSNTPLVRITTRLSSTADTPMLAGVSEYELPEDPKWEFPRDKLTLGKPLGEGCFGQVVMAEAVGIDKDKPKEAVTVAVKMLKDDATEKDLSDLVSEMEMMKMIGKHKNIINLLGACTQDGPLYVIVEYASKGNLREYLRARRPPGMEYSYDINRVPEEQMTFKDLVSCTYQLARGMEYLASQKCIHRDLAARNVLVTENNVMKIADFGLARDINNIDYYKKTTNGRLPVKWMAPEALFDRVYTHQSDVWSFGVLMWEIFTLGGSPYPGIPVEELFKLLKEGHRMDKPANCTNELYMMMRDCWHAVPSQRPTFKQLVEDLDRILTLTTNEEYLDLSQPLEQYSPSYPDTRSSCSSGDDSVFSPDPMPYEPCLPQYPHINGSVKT

Structure (SMILES)	IC50 (SNU16 cells) [nM]	IC50 (FGFR2) [nM]
C=CC(=O)N1CCC(n2ncc(-c3c(-c4ccc(Oc5cccc(C)n5)cc4)c4c(N)ncnc4n3C)c2C)CC1 [Example 637]	≤ 100	< 100
C/C=C/C(=O)N1CC(n2cc(-c3c(-c4ccc(Oc5cccc(C)n5)cc4)c4c(N)ncnc4n3C)cn2)C1 [Example 639]	≤ 100	< 100
C=CC(=O)N1CCC(c2c(-c3ccc(Oc4cccc(C)n4)cc3)c3c(N)ncnc3n2C)C1 (stereo not shown) [Example 645]	≤ 100	< 100
Cc1cccc(Oc2ccc(-c3c(-c4cnn(C5CCN(C(=O)/C=C/CN6CCOCC6)CC5)c4)n(C)c4ncnc(N)c34)cc2)n1 [Example 646]	100 to 250	100 to 250
C=CC(=O)N1CCC(c2c(-c3ccc(Oc4cccc(C)n4)cc3)c3c(N)ncnc3n2C)CC1 [Example 647]	≤ 100	< 100
C=CC(=O)N1CCC(c2nnc(-c3c(-c4ccc(Oc5cccc(C)n5)cc4)c4c(N)ncnc4n3C)o2)CC1 [Example 651]	≤ 100	100 to 250
C=CC(=O)N1CC=C(c2c(-c3ccc(Oc4cccc(C)n4)cc3)c3c(N)ncnc3n2C)CC1 [Example 656]	≤ 100	< 100
C=CC(=O)N1CCC=C(c2c(-c3ccc(Oc4cccc(C)n4)c(OC)c3)c3c(N)ncnc3n2C)C1 [Example 657]	1000 to 100000	1000 to 100000
C=CC(=O)N1CCC(c2nc(-c3c(-c4ccc(Oc5cccc(C)n5)cc4)c4c(N)ncnc4n3C)no2)CC1 [Example 660]	≤ 100	< 100
C=CC(=O)N1CCCC(c2c(-c3ccc(Oc4cccc(C)n4)c(OC)c3)c3c(N)ncnc3n2C)C1 (stereo not shown) [Example 661]	1000 to 100000	1000 to 100000

Other lines, results leading:

IC50 (SNU16 cells) [nM]	IC50 (FGFR2) [nM]	Structure (SMILES)
≤ 100	< 100	C=CC(=O)N1CCC(n2cc(-c3c(-c4ccc(Oc5ccccn5)cc4)c4c(N)ncnc4n3C)cn2)CC1 [Example 638]
≤ 100	< 100	C/C=C/C(=O)N1CCC(n2cc(-c3c(-c4ccc(Oc5cccc(C)n5)cc4)c4c(N)ncnc4n3C)cn2)C1 (stereo not shown) [Example 640]
≤ 100	< 100	C=CC(=O)N1CCC(n2cc(-c3c(-c4ccc(Oc5cccc(C)n5)c(OC)c4)c4c(N)ncnc4n3C)cn2)CC1 [Example 641]
100 to 250	250 to 1000	C=CC(=O)N1CCC(n2cc(-c3c(-c4ccc(Oc5cnccn5)cc4)c4c(N)ncnc4n3C)cn2)CC1 [Example 642]
250 to 1000	250 to 1000	C=C(CN1CCOCC1)C(=O)N1CCC(n2cc(-c3c(-c4ccc(Oc5cccc(C)n5)cc4)c4c(N)ncnc4n3C)cn2)CC1 [Example 643]
250 to 1000	250 to 1000	CC#CC(=O)N1CCC(n2cc(-c3c(-c4ccc(Oc5cccc(C)n5)cc4)c4c(N)ncnc4n3C)cn2)CC1 [Example 644]
100 to 250	< 100	C=CS(=O)(=O)N1CCC(n2cc(-c3c(-c4ccc(Oc5cccc(C)n5)cc4)c4c(N)ncnc4n3C)cn2)CC1 [Example 648]
250 to 1000	100 to 250	C/C=C/C(=O)N1CCC(n2cc(-c3c(-c4ccc(Oc5cccc(C)n5)cc4)c4c(N)ncnc4n3C)cn2)CC1 [Example 649]
≤ 100	< 100	C=CC(=O)N1CCC(n2cc(-c3c(-c4ccc(Oc5cccc(OC)n5)cc4)c4c(N)ncnc4n3C)cn2)CC1 [Example 650]
1000 to 100000	100 to 250	C=C(C)C(=O)N1CCC(n2cc(-c3c(-c4ccc(Oc5ccccc5)cc4)c4c(N)ncnc4n3C)cn2)CC1 [Example 652]
1000 to 100000	250 to 1000	C=C(C)C(=O)N1CCC(n2cc(-c3c(-c4ccc(OC)cc4)c4c(N)ncnc4n3C)cn2)CC1 [Example 653]
≤ 100	< 100	C=CC(=O)N1CC=C(c2c(-c3ccc(OC)cc3)c3c(N)ncnc3n2C)CC1 [Example 654]
1000 to 100000	250 to 1000	C/C(=C\CN(C)C)C(=O)N1CCC(n2cc(-c3c(-c4ccc(Oc5cccc(C)n5)cc4)c4c(N)ncnc4n3C)cn2)CC1 [Example 655]
